The text below walks through data of patent US20200299783A1 (Board of Regents, The University of Texas System, priority 2019, published 2020).

Common to all, as to assay type: cell-based, human
Assay [1] deals with ibrutinib-resistant MCL cell lines Maver-1 and Z-138. In words: ROS levels by flow cytometry, ibrutinib-resistant MCL cell lines. The note with it: 0.5 mM AOA for 24 hours; compared with the sensitive cell lines; FIG. 10B. How it is done: Mitochondria membrane potential, mitochondria mass, ROS, and apoptosis analysis. MCL cells were seeded and cultured overnight before treatment to reach log phase. Respective cell lines were plated at 2×10^6 cells/well in 6-well plates in phenol-red and pyruvate-free DMEM assay medium containing 5 mM glucose (Sigma), 2 mM GlutaMAX (Gibco, ThermoFisher Scientific), and 5% dialyzed FCS (Gibco). Vehicle, IACS-0107059 (20 nM), or (1-5 μM) BPTES was added and replenished every day until the indicated time points. ROS and mitochondria membrane potential were evaluated 24 hours after treatment. […] TMRE dye fluorescence retained in the cells was detected by flow cytometry with excitation and emission of 548/574 nm. Data were analyzed with NovoExpress (ACEA Biosciences, San Diego, Calif., USA) or FlowJo10 (Tree Star, Ashland, Oreg., USA). To measure ROS levels, treated cells were harvested, stained with […] CM-H2DCF-DA (C6827, Molecular Probes, Invitrogen) in PBS for 30 min at 37° C., washed twice with PBS, and analyzed in a flow cytometer (FACS Caliber, BD Biosciences) by recording the green fluorescence of oxidized DCF. The mean fluorescence of 10,000 analyzed cells (corrected for auto fluorescence) was taken as a readout for the intracellular ROS load.
For orientation: Flow cytometry measures light scatter and fluorescence of single cells or particles in a stream.

Assay [2] concerns Z-138 and Maver-1 MCL cell lines. Nature of the assay: Immunoblotting of cleaved Caspase-7 and PARP. Particulars: 20 nM IACS-010759 and/or 5 μM BPTES for 72 hours; FIG. 5G. How it is done: Cells were cultured with single agent or combination therapy in the presence or absence of caspase inhibitors. Cells were harvested, washed twice with cold PBS, and lysed with lysis buffer (Cell Signaling, Danvers, Mass., USA). Cell lysates were kept on ice for 30 min and centrifuged at 13,000 g for 10 min at 4° C. For the detection of cytosolic cytochrome c, the Cytosol Fractionation Kit (BioVision, Milpitas, Calif., USA) was utilized to acquire cytosolic fractions according to the manufacturer's instructions. Supernatants were collected, and the protein content of each fraction was determined using a Bio-Rad Bradford assay (Bio-Rad, Hercules, Calif., USA). Samples were boiled in loading buffer and separated by 10% SDS-PAGE. After electrophoresis, the proteins were transferred onto a nitrocellulose membrane (Bio-Rad), which was incubated with blocking solution (5% nonfat dry milk in PBS containing 0.05% Tween-20) for 2 h and immunoblotted with SLC16A1 (Novus, St. Louis, Mo., USA), SLC1A5, BTK, and p16INK4a, and GAPDH (Cell Signaling, Danvers, Mass., USA) antibodies. The membrane was finally visualized by incubating the membrane with a chemiluminescence Western blot kit (Pierce Biotechnology, Rockford, Ill., USA).
(In general: A western blot detects proteins with antibodies after separation by electrophoresis.)

The subject of assay [3] is ibrutinib-resistant Z-138 MCL cells. In words: Apoptosis assay (Annexin-V/PI), Z-138. The note with it: 72 hours, 20 nM IACS-010759 and/or 5 μM BPTES, FIGS. 5F & 11E. Here is the method:
(§1) Apoptosis assays. Annexin V-binding assay was used to detect the induction of apoptosis. Cells were seeded in 48-well plates with single agent or combination therapy for various times, or with different concentrations for 48 hours. To quantify the percentages of cells undergoing apoptosis, Annexin V-FITC was used. Briefly, cells were washed twice with cold PBS and then suspended in binding buffer at a concentration of 1×10^6 cells/mL. After incubation, 100 μL of the solution was transferred to a 5-mL tube, to which 5 μL of Annexin V-FITC and 5 μL of PI are added. The tube was gently vortexed and incubated for 15 min at room temperature in dark. At the end of the incubation, 300 μL of binding buffer was added. Flow cytometric analysis was performed immediately with a Novocyte Flow Cytometer (ACEA Biosciences, San Diego, Calif., USA). Data were analyzed with NovoExpress (ACEA Biosciences, San Diego, Calif., USA) or FlowJo10 (Tree Star, Ashland, Oreg., USA).

The test system of assay [4] is ibrutinib-resistant Maver-1 MCL cells. In words: Apoptosis assay (Annexin-V/PI), Maver-1. Particulars: 72 hours, 20 nM IACS-010759 and/or 5 μM BPTES, FIGS. 5F & 11E. Here is the method:
as §1

Structures are written as SMILES.

On to `NOCC(=O)O` [AOA, aminooxyacetate], for which, in assay [1], the “ROS and energy stress” value is “marked induction of reactive oxygen species (ROS) and energy stress”.

`O=C(Cc1ccccc1)Nc1nnc(CCSCCc2nnc(NC(=O)Cc3ccccc3)s2)s1` [BPTES, bis-2-(5-phenylacetamido-1,3,4-thiadiazol-2-yl)ethyl sulfide]: the “caspase 7 activation and PARP cleavage” value in assay [2] is “induced caspase 7 activation and PARP cleavage”. The results for the apoptosis in assay [3] and in assay [4] were 44% and 25%, respectively.
